From article PMC9254721, “Global update on the susceptibilities of human influenza viruses to neuraminidase inhibitors and the cap-dependent endonuclease inhibitor baloxavir, 2018–2020” (Antiviral research, 2022)

What was measured:
[1] = tested on: B/Yamagata-lineage virus neuraminidase (NA); type: biochemical, influenza B/Yamagata-lineage virus
[2] = tested on: A(H1N2)v viruses; type: cell-based
[3] = tested on: influenza viruses; type: cell-based, influenza virus

CC(=O)N[C@H]1[C@H]([C@H](O)[C@H](O)CO)OC(C(=O)O)=C[C@@H]1N=C(N)N [Zanamivir, zanamivir]
inhibition phenotype (NI/RI/HRI) [1]: RI (key: normal inhibition (NI) is a <5-fold increase in the NAI IC50; RI is a 5- to 50-fold increase; HRI is a >50-fold increase)

COC(=O)OCOc1c2n(ccc1=O)N([C@@H]1c3ccccc3SCc3c1ccc(F)c3F)[C@@H]1COCCN1C2=O [baloxavir, baloxavir marboxil]
baloxavir susceptibility [2]: susceptible
fold increase compared to the respective median EC50 [3]: < 3 fold
